Data: patent US20020127202A1, “Compounds and compositions for delivering active agents” (Emisphere Technologies, Inc., priority 1996, published 2002)
Like-named read-outs stand apart in the source and are kept apart here.

Assays:
[1] = rat, in vivo, 100 mg/kg
Description: (§1) The delivery agents were reconstituted with distilled water and/or propylene glycol and adjusted to an apparent pH of 7.2-8.0 with either aqueous hydrochloric acid or aqueous sodium hydroxide. A stock solution of parathyroid hormone was prepared by dissolving parathyroid hormone in water. The parathyroid hormone solution was then added to the delivery agent solution. Several different delivery agent to active agent ratios were studied.
(§2) Male Sprague-Dawley rats weighing 200-250 g were fasted for 24 hours and administered ketamine (44 mg/kg) and chlorpromazine (1.5 mg/kg) 15 minutes prior to dosing. The rats were administered one of the dosing solutions described above by oral gavage or intracolonic instillation. Blood samples were collected serially from the tail artery for serum determination of parathyroid hormone concentration. Serum parathyroid hormone concentrations were quantified by a parathyroid hormone radioimmunoassay test kit.
(§3) Oral administration of solutions containing parathyroid hormone (PTH) and the non-α-amino acid delivery agents was tested in vivo in rats.

[2] = Delivery agent enhancement of salmon calcitonin bioavailability, subcutaneous administration in rats (serum calcium); type: in vivo, Male Sprague-Dawley rats; details: sCT 0.2 μg/kg
[3] = Delivery agent enhancement of parathyroid hormone bioavailability in rats (serum PTH radioimmunoassay)
Description: as §1, §2, §3

[4] = Delivery agent enhancement of rhGH bioavailability, subcutaneous administration in rats
Description: The delivery agents were reconstituted with distilled water and adjusted to pH 7.2-8.0 with either aqueous hydrochloric acid or aqueous sodium hydroxide. A stock solution of rhGH was prepared by mixing rhGH, D-mannitol and glycine and dissolving this mixture in 2% glycerol/water. The stock solution was then added to the delivery agent solution. Several delivery agent to active agent ratios were studied.
Male Sprague-Dawley rats weighing 200-250g were fasted for 24 hours and administered ketamine (44 mg/kg) and chlorpromazine (1.5 mg/kg) 15 minutes prior to dosing. The rats were administered one of the dosing solutions described above by subcutaneous injection, intranasal instillation, or sublingual instillation. Blood samples were collected serially from the tail artery for serum calcium concentration determination or serum rhGH concentrations. The dose of rhGH administered in these experiments was 0.1 mg/kg.
Serum rhGH concentrations were quantified by an rhGH enzyme immunoassay test kit.

[5] = In vivo delivery of heparin by oral administration in rats (APTT)
Description: In a test tube, 900 mg of carrier were dissolved in 3 mL of propylene glycol, and 0.299 g of sodium heparin was dissolved in 3 mL of water. The solutions were mixed by vortex. Sodium hydroxide (10 M) was added to the resulting mixture until a solution was obtained. The pH was then adjusted to 7.4+/−0.5 with concentrated hydrochloric acid, and the final solution was sonicated at for 30 minutes.
A group of fasted, conscious rats were administered the dosing compositions by oral gavage. Blood samples were collected by cardiac puncture following the administration of ketamine (44 mg/kg)., Heparin activity was determined by utilizing the activated partial thromboplastim time (APTT) according to the method of Henry, J. B., Clinical Diagnosis and Management by Laboratory Methods; Philadelphia, Pa.; W B Saunders (1979).
Heparin (100 mg/kg) was administered by oral gavage to rats, and heparin activity was determined according to the procedure of Example 44.

[6] = In vivo delivery of salmon calcitonin in rats (serum calcium)
Description: 400 mg of carrier were added to 2.9 mL of 25% aqueous propylene glycol. The resultant solution was stirred, and the pH was adjusted to 7.2 with sodium hydroxide (1.0 N). Water was added to bring the total volume to […]. […] Calcitonin (10 μg) was added to the solution. The total calcitonin concentration was 2.5 μg/mL.
For each sample a group of fasted rats were anesthetized. The rats were administered the dosing composition by oral gavage, intracolonic instillation, or intraduodenal administration. Blood samples were collected serially from the tail artery. Serum calcium was determined by testing with a Calcium Kit (Sigma Chemical Company, St. Louis, Mo., USA).

[7] = In vivo delivery of interferon α2b by intracolonic administration in rats (ELISA); details: carrier dose 100 mg/kg, interferon dose 250 μg/kg
Description: Propylene glycol (0-25%) was added as a solubilizing agent, if necessary.
Rats were administered the dosing composition by oral gavage, intraduodenal administration, or intracolonic administration.

[8] = In vivo delivery of rhGH in rats (serum rhGH by ELISA); details: oral, no carrier (0 mg/kg), rhGH dose 6 mg/kg
Description: Dosing compositions were prepared by mixing the modified amino acids and recombinant human growth hormone (rhGH) as listed in Table 1 below in a phosphate buffer solution at a pH of about 7-8.
Rats were administered the dosing composition by sublingual, oral gavage, intraduodenal administration, or colonic administration. Delivery was evaluated by using an ELISA assay for rhGH from Medix Biotech, Inc. For intracolonic administration, a sample was prepared and dosed to fasted rats at 25 mg/kg of carrier in a buffered solution containing propylene glycol (0-50%) and 1 mg/kg rhGH.

[9] = intracolonic, carrier dose 100 mg/kg, PTH dose 25 μg/kg
[10] = subcutaneous, delivery agent dose 2.5 mg/kg, rhGH 0.1 mg/kg
[11] = subcutaneous, delivery agent dose 1.0 mg/kg, rhGH 0.1 mg/kg
[12] = carrier dose 300 mg/kg, heparin dose 100 mg/kg

O=C(O)CCCc1ccc(NC(=O)CCOc2ccccc2)cc1 [CVIII]
Peak Serum [PTH] [1]: 115 ± 20 pg/mL

O=C(O)CCCCCCCNC(=O)c1ccccc1Br [CXIV]
Percent Decrease in Serum Calcium ([2]; delivery agent dose 20 μg/kg): 20 ± 3% | Peak Serum [PTH] [3, 9]: 65 ± 15 pg/mL

O=C(O)CCCCCCNC(=O)c1ccccc1O [CXI]
Percent Decrease in Serum Calcium ([2]; delivery agent dose 20 μg/kg): 21 ± 4% | Peak Serum [rhGH] [4, 10]: 16 ± 2 ng/mL

O=C(O)CCCCCCCNC(=O)c1ccccc1O [CXXIII]
Percent Decrease in Serum Calcium ([2]; delivery agent dose 2 μg/kg): 17 ± 3% | Percent Decrease in Serum Calcium ([2]; delivery agent dose 20 μg/kg): 25 ± 4% | Percent Decrease in Serum Calcium ([2]; delivery agent dose 200 μg/kg): 25 ± 5% | Percent Decrease in Serum Calcium ([2]; delivery agent dose 2000 μg/kg): 26 ± 5% | Peak Serum [rhGH] [4, 11]: 22 ± 3 ng/mL | Peak Serum [rhGH] [4, 10]: 25 ± 5 ng/mL | Peak Serum [rhGH] ([4]; subcutaneous, delivery agent dose 25 mg/kg, rhGH 0.1 mg/kg): 30 ± 6 ng/mL | Peak Serum [PTH] [3, 9]: 130 ± 20 pg/mL | Peak Serum [PTH] ([3]; oral, carrier dose 250 mg/kg, PTH dose 25 μg/kg): 20 ± 6 pg/mL | Peak Serum [PTH] ([3]; oral, carrier dose 250 mg/kg, PTH dose 100 μg/kg): 75 ± 25 pg/mL

O=C(O)CCCCCCCNC(=O)c1cccc([N+](=O)[O-])c1 [Compound CXV]
Peak Serum [rhGH] [4, 11]: 25 ± 3 ng/mL

CCC(C(=O)NCCCC(=O)O)C1CCCCC1 (stereo not shown) [Compound III]
Mean Peak APTT [5, 12]: 38.64 ± 17 s

O=C(O)CCCNC(=O)C1CCCCCC1 [Compound II]
Mean Peak APTT [5, 12]: 25.45 ± 2.8 s

COc1ccccc1/C=C/C(=O)Nc1ccc(CCC(=O)O)cc1 [Compound LXXXVI]
Peak Serum [PTH] [1]: 40 ± 12 pg/mL

O=C(O)CCCNC(=O)C1CCCCC1 [Compound V]
Maximum Decrease in Serum Calcium ([6]; oral, carrier dose 400 mg/kg, calcitonin dose 10 μg/kg): 18.35 +/− 2.87 % below baseline | Mean Peak APTT [5, 12]: 87.4 ± 34.1 s

O=C(O)CCCCCCCNC(=O)c1ccccc1O [Compound XIX]
Maximum Decrease in Serum Calcium ([6]; intracolonic, carrier dose 10 mg/kg, calcitonin dose 3 μg/kg): 26.49 +/− 12.3 % below baseline | Maximum Decrease in Serum Calcium ([6]; oral, carrier dose 200 mg/kg, calcitonin dose 7.5 μg/kg): 25.48 +/− 4.7 % below baseline | Mean Peak APTT [5, 12]: 119.99 ± 56.3 s

O=C(O)CCCCCCCNC(=O)/C=C/c1ccccc1O [Compound XXI]
Mean Peak Serum Levels of Interferon [7]: 4238 ± 2789 pg/mL

O=C(O)CCCCCCCCCNC(=O)c1ccccc1O [Compound XXXI]
Mean Peak APTT ([5]; carrier dose 50 mg/kg, heparin dose 10 mg/kg): 50.85 ± 9.1 s | Mean Peak APTT ([5]; carrier dose 50 mg/kg, heparin dose 25 mg/kg): 127.56 ± 22.97 s

CN(C)c1cccc(C(=O)Nc2ccc(CCCC(=O)O)cc2)c1 [LVIII]
Peak Serum [PTH] [1]: 145 ± 25 pg/mL

COc1ccccc1/C=C/C(=O)Nc1ccc(CCCC(=O)O)cc1 [LXXXIX]
Peak Serum [PTH] [1]: 70 ± 15 pg/mL

rhGH: recombinant human growth hormone, active agent dosed alone (Comparative Examples 5A, 16A)
Mean Peak Serum Levels of rhGH [8]: <10 ± 10 ng/mL | Peak Serum [rhGH] ([4]; no delivery agent (0.0 mg/kg), rhGH alone): 4 ± 2 ng/mL
